Measured values from patent US20050043331A1, “Substituted 3-(2,5-disubstituted)pyridyl-4-aryl pyrroles for treating inflammatory diseases” (priority 2002, published 2005).
Like-named read-outs stand apart in the source and are kept apart here.

Key:
TNF-α [1] = assay: In-vitro whole cell assay for TNF-α inhibition (LPS-stimulated PBMC, ELISA); type: cell-based; settings: TNF-α by ELISA
Procedure: Freshly obtained venous blood was anticoagulated with heparin, diluted with an equal volume of phosphate buffered saline (“PBS”) and placed in a sterile tube or other container. Aliquots (30 mL) of this mixture were transferred to centrifuge tubes, which were underlaid with Ficoll-Hypaque (15 mL). The prepared tubes were centrifuged at 400×g, without braking, for 30 min at room temperature. Approximately ½ to ⅔ of the platelet layer above the mononuclear cell band was removed with a pipette. The majority of the mononuclear cell layer was carefully removed using a pipette and these PBMC's were diluted with PBS and spun at 600×g for 15 min. The resulting PBMC's were washed with another portion of PBS and spun at 400×g for 10 min at room temperature. The recovered pellets were diluted in low endotoxin RPMI/1% FCS culture medium, and gave a cell concentration of 0.5-2.0×10^6 PMBC/ mL. A small volume of the suspension was removed for counting on a hemocytometer and the remaining preparation was centrifuged at 200×g for 15 min at room temperature. The recovered pelleted PMBC's were resuspended in RPMI/1% FCS to a concentration of 1.67×10^6/mL.
To run the assay, the PBMC suspension (180 μL) was transferred to duplicate wells of a 96-well flat-bottom microtiter plate and incubated for 1 h at 37° C. A solution of test compound (10 μL: prepared at 20× the desired final concentration) was added to each well and the plate was incubated for 1 h at 37° C. A solution (10 μL) of LPS in RPMI/1% FCS (200 ng/mL) was added and the wells were incubated overnight at 37° C. The supernate (100 μL) was removed from each well and diluted with RPMI/1% FCS (400 μL). The samples were analyzed for TNF-α using a commercial ELISA kit (Genzyme).

P38 = P38 (Homo sapiens, UniProt Q16539); assay: P38 cell, 1 μM LJ; type: cell-based; design: unit not given here
Chain of P38 (Q16539 whole entry): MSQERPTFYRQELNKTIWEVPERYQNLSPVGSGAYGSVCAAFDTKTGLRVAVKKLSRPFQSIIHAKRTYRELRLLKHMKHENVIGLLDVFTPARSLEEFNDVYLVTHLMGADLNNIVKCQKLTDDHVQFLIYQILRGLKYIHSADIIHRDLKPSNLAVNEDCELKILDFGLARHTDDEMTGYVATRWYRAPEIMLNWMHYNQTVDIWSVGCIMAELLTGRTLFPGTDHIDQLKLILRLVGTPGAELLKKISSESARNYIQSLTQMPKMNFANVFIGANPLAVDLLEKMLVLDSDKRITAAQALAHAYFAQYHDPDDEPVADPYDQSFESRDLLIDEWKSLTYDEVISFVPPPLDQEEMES

TNF-α [2] = assay: In vivo rodent assay for inhibition of LPS-induced TNF-α production; design: species or system Mice (BALB/cJ females); settings: 10 mg/kg oral; for inhibition in vivo at 10 mg/kg: Mus musculus, po
Procedure: Mice (BALB/cJ females, Jackson Laboratories) or rats (Lewis males, Charles River) were fasted for 30 min. The animals were dosed orally on a mg/kg basis at a range of times prior to being injected intraperitoneally with LPS at 1 mg/kg and returned to their cages for 1 h. Animals were anesthetized by CO2, exsanguinated by cardiac puncture and whole blood collected (0.1-0.7 mL). The blood was allowed to clot and serum was transferred to a centrifuge tube. This sample was centrifuged, and serum was collected, aliquoted and frozen at −80° C. Samples were tested by commercial ELISA's for TNF-α (Endogen for mouse TNF-α and Biosource for rat TNF-α).

[3] = 0.5 h, 0.5 h, read-out: Mouse 10 mg/kg % inhib 0.5 h
[4] = 2 h, 2 h, read-out: Mouse 10 mg/kg % inhib 2 h

Compound	IC50 (TNF-α [1]) [µM]	P38 cell 1 μM LJ (P38)	inhibition in vivo at 10 mg/kg (TNF-α [2]; [3]) [%]	inhibition in vivo at 10 mg/kg (TNF-α [2]; [4]) [%]	Mouse 10 mg/kg % inhib 2 h (TNF-α [2]; 2 h, 10 mg/kg) [%]
COC(=O)c1c(-c2ccc(F)cc2)c(-c2ccncc2)c(N2CCN(C(=O)OC(C)(C)C)CC2)n1C [Cpd 8a]	4.26	28	–	–	–
COC(=O)c1c(-c2ccc(F)cc2)c(-c2ccncc2)cn1CCN1CCOCC1 [Cpd 60]	10	1	–	–	–
CCOC(=O)c1[nH]cc(-c2ccncc2)c1-c1ccc(C)cc1 [Cpd 75]	0.136	42	–	–	–
CCOC(=O)c1c(-c2ccc(Br)cc2)c(-c2ccncc2)cn1C [Cpd 77]	0.211	62	–	–	–
CC(C)NC(=O)c1c(-c2ccc(F)cc2)c(-c2ccncc2)c(N2CCNCC2)n1C [Cpd 89]	–	22	–	–	–
CC(C)C(C)NC(=O)c1c(-c2ccc(F)cc2)c(-c2ccncc2)c(N2CCNCC2)n1C (stereo not drawn) [Cpd 90]	–	15	–	–	–
COC(=O)c1c(-c2ccc(F)cc2)c(-c2ccncc2)c(N2CCN(C(C)=O)CC2)n1C [Cpd 116]	1.53	–	57	–	–
COC(=O)c1c(-c2ccc(F)cc2)c(-c2ccncc2)c(Nc2ccccc2)n1C [Cpd 119]	0.057	–	-10.5	–	–
COC(=O)c1c(-c2ccc(F)cc2)c(-c2ccncc2)cn1C(C)=O [Cpd 121]	0.194	–	-32.1	–	–
COC(=O)c1c(-c2ccc(F)cc2)c(-c2ccncc2)c(-c2ccc(N(C)C)cc2)n1C [Cpd 122]	0.12	–	-22	–	–
CCN1CCN(c2c(-c3ccncc3)c(-c3ccc(F)cc3)c(C(=O)OC)n2C)CC1 [Cpd 124]	0.135	–	67.8	–	–
COC(=O)c1c(-c2ccc(F)cc2)c(-c2ccncc2)c(N2CCN(C3CCCC3)CC2)n1C [Cpd 125]	0.139	–	48.6	–	–
COC(=O)c1c(-c2ccc(F)cc2)c(-c2ccncc2)c(N2CCN(CC3CC3)CC2)n1C [Cpd 128]	0.269	–	66.3	–	–
O=C1CCn2c(Br)c(-c3ccncc3)c(-c3ccc(F)cc3)c21 [Cpd 129]	0.819	–	31	–	–
COC(=O)c1c(-c2ccc(F)cc2)c(-c2ccncc2)c(NC2CCNCC2)n1C [Cpd 131]	0.315	–	7	–	–
COC(=O)C1CCn2cc(-c3ccncc3)c(-c3ccc(F)cc3)c2C1=O (stereo not drawn) [Cpd 133]	0.326	–	-9	–	–
O=C1CCCn2cc(-c3ccncc3)c(-c3ccc(F)cc3)c21 [Cpd 134]	0.15	–	61	31	–
COc1ccc(CNCc2[nH]cc(-c3ccncc3)c2-c2ccc(F)cc2)cc1 [Cpd 138]	0.19	–	-30	–	–
COC(=O)c1c(-c2ccc(F)cc2)c(-c2ccncc2)cn1C(=O)OC [Cpd 139]	0.023	–	-22	–	–
COC(=O)c1c(-c2ccncc2)c(-c2ccc(F)cc2)cn1C [Cpd 141]	0.055	–	-56	–	–
CCn1cc(-c2ccncc2)c(-c2ccc(F)cc2)c1CO [Cpd 143]	0.07	–	48	–	–
COC(=O)c1c(-c2ccc(F)cc2)c(-c2ccncc2)c(-c2cccc(NC(C)=O)c2)n1C [Cpd 144]	0.002	–	59	–	–
CON(C)C(=O)c1c(-c2ccc(F)cc2)c(-c2ccncc2)c(N2CCN(C(=O)OC(C)(C)C)CC2)n1C [Cpd 145]	0.072	–	45	–	–
CN(C)CCn1cc(-c2ccncc2)c(-c2ccc(F)cc2)c1CO [Cpd 147]	0.852	–	20	–	–

Compound	IC50 (TNF-α [1]) [µM]	P38 cell 1 μM LJ (P38)	inhibition in vivo at 10 mg/kg (TNF-α [2]; [3]) [%]	inhibition in vivo at 10 mg/kg (TNF-α [2]; [4]) [%]	Mouse 10 mg/kg % inhib 2 h (TNF-α [2]; 2 h, 10 mg/kg) [%]
COC(=O)c1c(-c2ccncc2)c(-c2ccc(F)cc2)c(NCCN2CCOCC2)n1C [Cpd 148]	10	–	91	–	–
COC(=O)c1c(-c2ccncc2)c(-c2ccc(F)cc2)c(NCCc2ccccc2)n1C [Cpd 152]	1.02	–	58	–	–
CCOC(=O)c1c(-c2ccc(F)cc2)c(-c2ccncc2)c(CCCOCc2ccccc2)n1C [Cpd 155]	0.248	–	51	–	–
COC(=O)c1c(-c2ccc(F)cc2)c(-c2ccncc2)c(NCCN2CCCC2)n1CCN1CCOCC1 [Cpd 156]	0.969	–	23	–	–
COC(=O)c1c(-c2ccc(F)cc2)c(-c2ccncc2)c(Nc2ccc(N3CCOCC3)cc2)n1C [Cpd 159]	1.56	–	29	–	–
COC(=O)c1c(-c2ccc(F)cc2)c(-c2ccncc2)c(NCc2ccc(OC)cc2)n1C [Cpd 160]	0.042	–	79	-46	–
CCn1c(C(=O)OC)c(-c2ccc(F)cc2)c(-c2ccncc2)c1N(C)CCN1CCOCC1 [Cpd 163]	0.105	–	66	13	–
COC(=O)c1c(-c2ccncc2)c(-c2ccc(F)cc2)c(C#CCCO)n1C [Cpd 167]	0.894	–	30	–	–
Cn1cc(-c2ccncc2)c(-c2ccc(F)cc2)c1C#N [Cpd 168]	0.171	–	67	–	−19
Cn1c(Br)c(-c2ccncc2)c(-c2ccc(F)cc2)c1C#N [Cpd 170]	0.625	–	22	–	–
COCC#Cc1c(-c2ccc(F)cc2)c(-c2ccncc2)c(C(=O)OC)n1C [Cpd 172]	0.443	–	-5	–	–
CN(CCN1CCOCC1)c1c(-c2ccncc2)c(-c2ccc(F)cc2)cn1C [Cpd 173]	0.117	–	65	-17	–
COC(=O)c1c(-c2ccncc2)c(-c2ccc(F)cc2)c(C#CCCN2CCOCC2)n1C [Cpd 175]	0.032	–	–	-4	–
C=CC#Cc1c(-c2ccc(F)cc2)c(-c2ccncc2)c(C(=O)OC)n1C [Cpd 176]	0.034	–	–	-20	–
COC(=O)c1c(-c2ccc(F)cc2)c(-c2ccncc2)c(NCc2cccc(OC)c2)n1C [Cpd 177]	0.407	–	–	63	–
CC(=O)c1c(-c2ccc(F)cc2)c(-c2ccncc2)c(N2CCN(C)CC2)n1C [Cpd 178]	0.37	–	–	40	–
CCOC(=O)N1CCN(c2c(-c3ccncc3)c(-c3ccc(F)cc3)c(C(=O)OC)n2C)CC1 [Cpd 179]	0.03	–	–	8	–
CN(CCO)Cc1[nH]cc(-c2ccc(F)cc2)c1-c1ccncc1 [Cpd 180]	0.003	–	–	-8	–
COC(=O)CN1CCN(c2c(-c3ccncc3)c(-c3ccc(F)cc3)c(C(=O)OC)n2C)CC1 [Cpd 181]	0.005	–	–	26	–
CC(=O)N1CCN(c2c(-c3ccncc3)c(-c3ccc(F)cc3)c(C#N)n2C)CC1 [Cpd 182]	0.154	–	–	81	–
CN1CCN(c2c(-c3ccncc3)c(-c3ccc(F)cc3)c(C#N)n2C)CC1 [Cpd 183]	0.08	–	–	47	–
COC(=O)c1c(-c2ccc(F)cc2)c(-c2ccncc2)c(C#CCN2CCN(C)CC2)n1C [Cpd 184]	0.0077	–	–	57	–
Cn1cc(-c2ccncc2)c(-c2ccc(F)cc2)c1CNC(=O)Nc1ccccc1 [Cpd 185]	0.027	–	–	82	–
Cn1c(C#N)c(-c2ccc(F)cc2)c(-c2ccncc2)c1N1CCNCC1 [Cpd 186]	0.018	–	–	67	–
